Measured values reported in article PMC6225485, “Computational screening of chalcones acting against topoisomerase IIα and their cytotoxicity towards cancer cell lines” (Journal of Enzyme Inhibition and Medicinal Chemistry, 2018).

Target: T1, human topoisomerase IIα (rhTopoIIα ATPase domain) (Homo sapiens, UniProt P11388)
T1 construct: gene TOP2A; ATPase domain (45 kDa, recombinant, pET28b-hTopoIIα-ATPase)
Assay: ADP-Glo ATPase assay with purified recombinant ATPase domain
Type: biochemical
Conditions: read-out: IC50 against rhTopoIIα ATPase domain

T1 sequence (P11388 29-428 limits assumed): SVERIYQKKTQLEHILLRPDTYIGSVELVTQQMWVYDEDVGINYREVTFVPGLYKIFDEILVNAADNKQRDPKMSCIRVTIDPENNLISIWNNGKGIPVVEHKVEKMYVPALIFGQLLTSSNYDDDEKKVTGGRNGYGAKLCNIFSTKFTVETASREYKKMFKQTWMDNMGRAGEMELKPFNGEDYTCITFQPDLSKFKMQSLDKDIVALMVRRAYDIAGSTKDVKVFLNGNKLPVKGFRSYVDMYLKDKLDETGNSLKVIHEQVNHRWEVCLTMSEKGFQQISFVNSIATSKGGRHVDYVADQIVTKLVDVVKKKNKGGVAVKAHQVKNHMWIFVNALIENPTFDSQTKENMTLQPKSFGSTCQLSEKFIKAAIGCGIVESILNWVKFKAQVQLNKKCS

| Compound | IC50 [nM] |
| --- | --- |
| Cc1ccc2c(c1CCC(O)C(C)(C)O)C(=O)C(=O)C(C(C)C)=C2 (centres unmarked) [Salvicine] | 326 ± 6.6 |
| COc1cc(O)c(C(=O)/C=C/c2cc(OC)c(OC)c(OC)c2)c(OC)c1 [3d, chalcone 3d] | 7.5 ± 4.2 |
